The text below walks through data of patent US10858347B2, “Multicyclic compounds and uses thereof” (Karyopharm Therapeutics Inc., priority 2015, dated 2020).

Where only a bound is given, the exact number is not on record here.

What is called IC50 is the point on the concentration scale where inhibition reaches its midpoint. The low end stands for inhibition by little substance, the high end for a need for much substance.

The test system of one experiment is Z138 cells. Description: MTT cell proliferation assay, Z138 cells. Format: cell-based, human. Particulars: Homo sapiens, Z-138; Z138 cells (mature B-cell acute lymphoblastic leukemia cell line); approximately 64-72 hours incubation. The method, then:
(§1) The MTT cell proliferation assay was used to study the cytotoxic properties of the compounds. The assay was performed according to the method described by Roche Molecular Biochemicals, with minor modifications. The assay is based on the cleavage of the tetrazolium salt, MTT, in the presence of an electron-coupling reagent. The water-insoluble formazan salt produced must be solubilized in an additional step. Cells grown in a 96-well tissue culture plate were incubated with the MTT solution for approximately 4 hours. After this incubation period, a water-insoluble formazan dye formed. After solubilization, the formazan dye was quantitated using a scanning multi-well spectrophotometer (ELISA reader). […] The cells were seeded at 5,000-10,000 cells in each well of 96-well plate in 100 μL of fresh culture medium and were allowed to attach overnight. The stock solutions of the compounds were diluted in 100 μL cell culture medium to obtain eight concentrations of each test compound, ranging from 1 nM to 30 μM. […] All optical densities were measured at 490 nm using a Vmax Kinetic Microplate Reader (Molecular Devices). In most cases, the assay was performed in duplicate and the results were presented as a mean percent inhibition to the negative control±SE. The following formula was used to calculate the percent of inhibition: Inhibition (%)=(1−(ODo/OD))×100.
(§2) The compounds were tested against MS751, Z138 and 3T3 cells. The MS751 cell line is derived from a metastasis to lymph node of human cervix from a patient diagnosed with squameous cell carcinoma of the cervix. The Z138 cell line is a mature B-cell acute lymphoblastic leukemia cell line derived from a patient with chronic lumphocytic leukemia. 3T3 cells are standard fibroblast cells; they were originally isolated from Swiss mouse embryo tissue.
In general terms: Tetrazolium dyes change colour on reduction, which living cells bring about.

The next experiment concerns MS751 cells. The experiment is described as follows: MTT cell proliferation assay, MS751 cells. The format is cell-based. Particulars: MS751 cells (human cervix squamous cell carcinoma, lymph node metastasis); approximately 64-72 hours incubation. The method, then: as §1, §2
A further experiment relates to 3T3 cells. The experiment is described as follows: MTT cell proliferation assay, 3T3 cells. The format is cell-based. Particulars: NIH3T3; 3T3 cells (standard fibroblast cells, Swiss mouse embryo); approximately 64-72 hours incubation. The method, then:
as §1, §2

Take `Nc1ccc(C2CN(C(=O)NCc3cc4cc(-c5ccc(C(=O)N6CCC(F)(F)CC6)cc5)cc(-c5ccc(F)cc5)c4o3)C2)cn1` [Compound 103, 3-(6-aminopyridin-3-yl)-N-((5-(4-(4,4-difluoropiperidine-1-carbonyl)phenyl)-7-(4-fluorophenyl)benzofuran-2-yl)methyl)azetidine-1-carboxamide]: the IC50 in the experiment with Z138 cells is under 0.1 µM; with MS751 cells it was 0.1 to 5 µM; in the experiment with 3T3 cells, 0.1 to 5 µM.

For the compound `O=C(NCCc1cc2cc(-c3ccc(C(=O)N4CCC(F)(F)CC4)cc3)cc(-c3ccc(F)cc3)c2o1)N1Cc2ccncc2C1` [Compound 107, N-(2-(5-(4-(4,4-difluoropiperidine-1-carbonyl)phenyl)-7-(4-fluorophenyl)benzofuran-2-yl)ethyl)-1H-pyrrolo[3,4-c]pyridine-2(3H)-carboxamide], the IC50 in the experiment on Z138 cells is under 0.1 µM; in the experiment with MS751 cells it was under 0.1 µM; with 3T3 cells it was 0.1 to 5 µM.

As for `O=C(NCc1cc2cc(-c3ccc(C(=O)N4CCC(F)(F)CC4)cc3)cc(-c3ccc(F)cc3F)c2o1)N1Cc2ccncc2C1` [Compound 108, N-((7-(2,4-difluorophenyl)-5-(4-(4,4-difluoropiperidine-1-carbonyl)phenyl)benzofuran-2-yl)methyl)-1H-pyrrolo[3,4-c]pyridine-2(3H)-carboxamide], the IC50 with Z138 cells was under 0.1 µM; in the experiment with MS751 cells it was under 0.1 µM; in the experiment with 3T3 cells, over 10 µM.

Take `N#C/N=C(\NCc1cc2cc(-c3ccc(C(=O)N4CCC(F)(F)CC4)cc3)cc(-c3ccc(F)cc3)c2o1)Nc1ccc(N)nc1` [Compound 118, (E)-1-(6-aminopyridin-3-yl)-2-cyano-3-((5-(4-(4,4-difluoropiperidine-1-carbonyl)phenyl)-7-(4-fluorophenyl)benzofuran-2-yl)methyl)guanidine]: the IC50 in the experiment with Z138 cells, in the experiment with MS751 cells and in the experiment on 3T3 cells was over 10 µM throughout.

Turning to `N#C/N=C(/NCc1ccc(N)nc1)NCc1cc2cc(-c3ccc(C(=O)N4CCC(F)(F)CC4)cc3)cc(-c3ccc(F)cc3)c2o1` [Compound 119, (Z)-1-((6-aminopyridin-3-yl)methyl)-2-cyano-3-((5-(4-(4,4-difluoropiperidine-1-carbonyl)phenyl)-7-(4-fluorophenyl)benzofuran-2-yl)methyl)guanidine], the IC50 was 0.1 to 5 µM in the experiment on Z138 cells, 0.1 to 5 µM in the experiment with MS751 cells and over 10 µM in the experiment with 3T3 cells.

Turning to `O=C(NCCOc1ccc(-c2ccc(C(=O)N3CCC(F)(F)CC3)cc2)cc1-c1ccc(F)cc1)N1Cc2ccncc2C1` [Compound 121, N-(2-((4-(4,4-difluoropiperidine-1-carbonyl)-4″-fluoro-[1,1′:3′,1″-terphenyl]-4′-yl)oxy)ethyl)-1,3-dihydro-2H-pyrrolo[3,4-c]pyridine-2-carboxamide], the IC50 is under 0.1 µM in the experiment with Z138 cells, under 0.1 µM with MS751 cells and over 10 µM with 3T3 cells.
